In US10485236B2, “Triazole derivatives, intermediates thereof and their use as fungicides” (Bayer CropScience Aktiengesellschaft, priority 2015, dated 2019) one finds pest or weed control and chromatographic logP data, which are given here for two molecules.

For data set [1], the system named is Uromyces appendiculatus. Description: Example E: in vivo preventive test on Uromyces appendiculatus (bean rust). To be noted: 264 h, 500 ppm of active ingredient, bean plants, preventive spray, evaluated 11 days after inoculation, read-out: efficacy. The method, then:
(§1) Example E: In Vivo Preventive Test on Uromyces appendiculatus (Bean Rust) [table] The active ingredients are made soluble and homogenized in a mixture of Dimethyl sulfoxide/Acetone//Tween® 80 and then diluted in water to the desired concentration. The young plants of bean are treated by spraying the active ingredient prepared as described above. Control plants are treated only with an aqueous solution of Acetone/Dimethyl sulfoxide/Tween® 80. After 24 hours, the plants are contaminated by spraying the leaves with an aqueous suspension of Uromyces appendiculatus spores. The contaminated bean plants are incubated for 24 hours at 20° C. and at 100% relative humidity and then for 10 days at 20° C. and at 70-80% relative humidity. The test is evaluated 11 days after the inoculation. 0% means an efficacy which corresponds to that of the control plants while an efficacy of 100% means that no disease is observed.

The test system of data set [2] is Sphaerotheca fuliginea. Description: Example M: in vivo preventive test on Sphaerotheca (cucumbers); comparison of phenoxy-pyridyl compounds vs. known phenoxy-phenyl compounds. To be noted: Podosphaera fuliginea, 168 h, rate of application 10 ppm, evaluated 7 days after inoculation, read-out: Efficacy in %. As to the method:
Example M: In Vivo Preventive Test on Sphaerotheca (Cucumbers); Comparison of Phenoxy-pyridyl Compounds According to the Invention Vs. Known Phenoxy-phenyl Compounds [table] To produce a suitable preparation of active compound, 1 part by weight of active compound is mixed with the above stated amounts of solvent and emulsifier, and the concentrate is diluted with water to the desired concentration. To test for preventive activity, young plants are sprayed with the preparation of active compound at the stated rate of application. After the spray coating has dried on, the plants are inoculated with an aqueous spore suspension of Sphaerotheca fuliginea. The plants are then placed in a greenhouse at approximately 23° C. and a relative atmospheric humidity of approximately 70%. The test is evaluated 7 days after the inoculation. 0% means an efficacy which corresponds to that of the untreated control, while an efficacy of 100% means that no disease is observed. [table]

The test system of data set [3] is Venturia inaequalis. Description: Example H: in vivo preventive test on Venturia test (apples). To be noted: 240 h, 100 ppm of active ingredient, preventive spray, evaluated 10 days after inoculation, read-out: efficacy. The method, then:
Example H: In Vivo Preventive Test on Venturia Test (Apples) [table] To produce a suitable preparation of active compound, 1 part by weight of active compound is mixed with the stated amounts of solvent and emulsifier, and the concentrate is diluted with water to the desired concentration. To test for preventive activity, young plants are sprayed with the preparation of active compound at the stated rate of application. After the spray coating has dried on, the plants are inoculated with an aqueous conidia suspension of the causal agent of apple scab (Venturia inaequalis) and then remain for 1 day in an incubation cabinet at approximately 20° C. and a relative atmospheric humidity of 100%. The plants are then placed in a greenhouse at approximately 21° C. and a relative atmospheric humidity of approximately 90%. The test is evaluated 10 days after the inoculation. 0% means an efficacy which corresponds to that of the untreated control, while an efficacy of 100% means that no disease is observed.

The test system of data set [4] is Alternaria solani. Nature of the data set: Example F: in vivo preventive test on Alternaria test (tomatoes). To be noted: 72 h, 100 ppm of active ingredient, preventive spray, evaluated 3 days after inoculation, read-out: efficacy. The method, then:
Example F: In Vivo Preventive Test on Alternaria Test (Tomatoes) [table] To produce a suitable preparation of active compound, 1 part by weight of active compound is mixed with the stated amounts of solvent and emulsifier, and the concentrate is diluted with water to the desired concentration. To test for preventive activity, young plants are sprayed with the preparation of active compound at the stated rate of application. After the spray coating has dried on, the plants are inoculated with an aqueous spore suspension of Alternaria solani. The plants are then placed in an incubation cabinet at approximately 20° C. and a relative atmospheric humidity of 100%. The test is evaluated 3 days after the inoculation. 0% means an efficacy which corresponds to that of the untreated control while an efficacy of 100% means that no disease is observed.

The nature of data set [5]: Measurement of LogP values by HPLC on reversed phase columns (EEC directive 79/831 Annex V.A8). It is filed as physicochemical. To be noted: reversed phase HPLC column, method [a]: LC-UV, acidic range, 0.1% formic acid in water and acetonitrile as eluent. In short, it runs like this:
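Calibrated with straight-chain alkan-2-ones (3–16 carbons) of known LogP, using retention times with linear interpolation between successive alkanones. Where one method gives several LogP values, all are listed, joined by "+". Lambda-max taken from UV spectra (200–400 nm) at chromatographic peak maxima.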

Data set [6] concerns Puccinia recondita. Description: Example B: in vivo preventive test on Puccinia recondita (brown rust on wheat). To be noted: 264 h, 500 ppm of active ingredient, wheat plants, preventive spray, evaluated 11 days after inoculation, read-out: efficacy. The method, then:
as §1, with “B:” for “E:”, “Puccinia recondita (Brown Rust on Wheat)” for “Uromyces appendiculatus (Bean Rust)”, “wheat” for “bean”, “Puccinia recondita” for “Uromyces appendiculatus”

Data set [7] relates to Septoria tritici. Nature of the data set: Example C: in vivo preventive test on Septoria tritici (leaf spot on wheat). To be noted: Zymoseptoria tritici, 576 h; 500 ppm of active ingredient; wheat plants, preventive spray; evaluated 24 days after inoculation; read-out: efficacy. As to the method:
Example C: In Vivo Preventive Test on Septoria tritici (Leaf Spot on Wheat) [table] The active ingredients are made soluble and homogenized in a mixture of Dimethyl sulfoxide/Acetone//Tween® 80 and then diluted in water to the desired concentration. The young plants of wheat are treated by spraying the active ingredient prepared as described above. Control plants are treated only with an aqueous solution of Acetone/Dimethyl sulfoxide/Tween® 80. After 24 hours, the plants are contaminated by spraying the leaves with an aqueous suspension of Septoria tritici spores. The contaminated wheat plants are incubated for 72 hours at 18° C. and at 100% relative humidity and then for 21 days at 20° C. and at 90% relative humidity. The test is evaluated 24 days after the inoculation. 0% means an efficacy which corresponds to that of the control plants while an efficacy of 100% means that no disease is observed.

In data set [8] the test system is Botrytis cinerea. Description: Example A: in vivo preventive test on Botrytis cinerea (grey mould), gherkin. To be noted: gherkin plants, preventive spray, evaluated 4 to 5 days after inoculation, read-out: efficacy. The method, then: Example A: In Vivo Preventive Test on Botrytis cinerea (Grey Mould) [table] The active ingredients are made soluble and homogenized in a mixture of Dimethyl sulfoxide/Acetone//Tween® 80 and then diluted in water to the desired concentration. The young plants of gherkin are treated by spraying the active ingredient prepared as described above. Control plants are treated only with an aqueous solution of Acetone/Dimethyl sulfoxide/Tween® 80. After 24 hours, the plants are contaminated by spraying the leaves with an aqueous suspension of Botrytis cinerea spores. The contaminated gherkin plants are incubated for 4 to 5 days at 17° C. and at 90% relative humidity. The test is evaluated 4 to 5 days after the inoculation. 0% means an efficacy which corresponds to that of the control plants while an efficacy of 100% means that no disease is observed.

The test system of data set [9] is Sphaerotheca fuliginea. Description: Example D: in vivo preventive test on Sphaerotheca fuliginea (powdery mildew on cucurbits). To be noted: Podosphaera fuliginea, 360 h; 500 ppm of active ingredient; gherkin plants, preventive spray; evaluated 15 days after inoculation; read-out: efficacy. The method, then:
Example D: In Vivo Preventive Test on Sphaerotheca fuliginea (Powdery Mildew on Cucurbits) [table] The active ingredients are made soluble and homogenized in a mixture of Dimethyl sulfoxide/Acetone//Tween® 80 and then diluted in water to the desired concentration. The young plants of gherkin are treated by spraying the active ingredient prepared as described above. Control plants are treated only with an aqueous solution of Acetone/Dimethyl sulfoxide/Tween® 80. After 24 hours, the plants are contaminated by spraying the leaves with an aqueous suspension of Sphaerotheca fuliginea spores. The contaminated gherkin plants are incubated for 72 hours at 18° C. and at 100% relative humidity and then for 12 days at 20° C. and at 70-80% relative humidity. The test is evaluated 15 days after the inoculation. 0% means an efficacy which corresponds to that of the control plants while an efficacy of 100% means that no disease is observed.

By chromatographic logP is commonly meant lipophilicity estimated from chromatographic retention. A higher chromatographic logP goes with a more lipophilic compound. For `Cc1ccc(Oc2ccc(C(C)(O)Cn3cncn3)c(Cl)n2)cc1Cl` (stereo not shown) [I.29], the pest or weed control at 500 ppm was 90 to 100% in data set [1], 80 to 89% in data set [6], 90 to 100% in data set [7] and 90 to 100% in data set [9]. Also, the pest or weed control at 10 ppm in data set [2] worked out at 95%. For the same molecule, the pest or weed control at 100 ppm in data set [3] and in data set [4] was 90 to 100% each time. Besides, in data set [5], the chromatographic logP was determined as 3. The pest or weed control in data set [8] lay within 90 to 100%.
In the case of `CC(O)(Cn1cncn1)c1ccc(Oc2ccc(Cl)cc2)cc1C(F)(F)F` (stereo not shown) [reference compound], the pest or weed control at 10 ppm in data set [2] came to 30%.
